# Measured values reported in article PMC5577376 (Nature chemical biology, 2017).
# “Also recorded” adds a separate entry of the source.
# Tests used:
# [1] = system: cellular neddylation / ubiquitination; conditions: cited from earlier work
# NEDD8 E1 enzyme = conditions: read-out: biochemical IC50; cited from earlier work
# [2] = system: levels of CRL substrates in HCC95 cells; test: Immunoblot of cullin-RING ligase substrates, HCC95; format: cell-based, human
# [3] = system: cullin neddylation in HCC95 cells; test: Cullin neddylation immunoblot, HCC95; format: cell-based, human; conditions: for Effect on levels of neddylated cullins: HCC95, 10 μM dosed at 0 and 24 hours, harvested at 48 hours
# DCN3 PONY domain = molecular target: T1, DCN3 PONY domain (Homo sapiens, UniProt Q8IWE4); test: Covalent adduct formation by TOF mass spectrometry, DCN3; format: binding; conditions: 30 μM PONY domain, 60 μM compound, overnight
# T1 sequence (Q8IWE4 86-278 limits assumed): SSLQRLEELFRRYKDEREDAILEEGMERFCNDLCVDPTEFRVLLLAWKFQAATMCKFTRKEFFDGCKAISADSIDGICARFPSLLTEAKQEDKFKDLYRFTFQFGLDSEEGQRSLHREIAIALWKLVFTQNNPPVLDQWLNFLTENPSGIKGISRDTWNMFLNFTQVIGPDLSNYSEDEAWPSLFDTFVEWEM
# DCN5 = molecular target: T2, DCN5 (Homo sapiens, UniProt Q9BTE7); test: Pulse-chase neddylation assay with DCN5; format: biochemical
# T2 sequence (Q9BTE7 46-232 limits assumed): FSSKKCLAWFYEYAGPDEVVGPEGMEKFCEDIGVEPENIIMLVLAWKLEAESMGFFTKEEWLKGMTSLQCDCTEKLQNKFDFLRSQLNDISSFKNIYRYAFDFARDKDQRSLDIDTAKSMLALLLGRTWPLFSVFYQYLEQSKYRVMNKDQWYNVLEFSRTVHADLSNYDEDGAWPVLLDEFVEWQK
# C115A DCN1, C115G DCN1 = C115A DCN1, C115G DCN1 (Homo sapiens, UniProt Q96GG9, C115A); test: Covalent adduct formation by TOF mass spectrometry, DCN1 Cys115 mutants; format: binding
# [4] = system: anchorage independent growth of HCC95 cells; test: Soft agar colony formation assay; format: cell-based, human; conditions: 10 μM
# DCN4 PONY domain = molecular target: T3, DCN4 PONY domain (Homo sapiens, UniProt Q92564); test: Covalent adduct formation by TOF mass spectrometry, DCN4; format: binding; conditions: 30 μM PONY domain, 60 μM compound, overnight
# T3 sequence (Q92564 101-287 limits assumed): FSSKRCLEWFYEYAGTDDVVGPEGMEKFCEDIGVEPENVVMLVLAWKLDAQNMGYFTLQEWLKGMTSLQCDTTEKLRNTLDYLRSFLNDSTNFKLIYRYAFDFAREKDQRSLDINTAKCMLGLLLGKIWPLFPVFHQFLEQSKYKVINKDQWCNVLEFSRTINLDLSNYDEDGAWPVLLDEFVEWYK
# DCN5 PONY domain = molecular target: T4, DCN5 PONY domain (Homo sapiens, UniProt Q9BTE7); test: Covalent adduct formation by TOF mass spectrometry, DCN5; format: binding; conditions: 30 μM PONY domain, 60 μM compound, overnight
# T4 sequence (Q9BTE7 46-232 limits assumed): T2 sequence (Q9BTE7 46-232 limits assumed)
# [5] = molecular target: DCN1 (PONY domain) binding to N-terminally acetylated UBE2M peptide (Homo sapiens, UniProt Q96GG9)
# DCN1 = DCN1 (Homo sapiens, UniProt Q96GG9); test: Covalent adduct formation by LC-TOF mass spectrometry, DCN1; format: binding; conditions: 30 μM PONY domain, 60 μM compound, overnight / 24-hour incubation
# DCN3 = molecular target: T5, DCN3 (Homo sapiens, UniProt Q8IWE4); test: Pulse-chase neddylation assay with DCN3; format: biochemical
# T5 sequence (Q8IWE4 86-278 limits assumed): T1 sequence (Q8IWE4 86-278 limits assumed)
# DCN2 PONY domain = DCN2 PONY domain (Homo sapiens, UniProt Q6PH85); test: Covalent adduct formation by TOF mass spectrometry, DCN2; format: binding; conditions: 30 μM PONY domain, 60 μM compound, overnight
# DCN4 = molecular target: T6, DCN4 (Homo sapiens, UniProt Q92564); test: Pulse-chase neddylation assay with DCN4; format: biochemical
# T6 sequence (Q92564 101-287 limits assumed): T3 sequence (Q92564 101-287 limits assumed)
# [6] = molecular target: DCN1-dependent neddylation from AcUBE2M to CUL2CTD-RBX1 (Homo sapiens, UniProt Q96GG9); format: biochemical
# [7] = system: DCN1-independent NEDD8 ligation from AcUBE2M to CUL2CTD; test: Pulse-chase assay, DCN1-independent neddylation; format: biochemical, human
# [8] = molecular target: UBE2M-DCN1 interaction in 293T cells (Homo sapiens, UniProt Q96GG9); test: Co-immunoprecipitation of DCN1 with UBE2M-FLAG-HA in cells; format: cell-based; conditions: treated 24 hours
# [9] = system: N-acetyl-UBE2M interactions in 293T cells; test: AP-MS TMT interaction proteomics of UBE2M; format: cell-based, human
# DCN2 = DCN2 (Homo sapiens, UniProt Q6PH85); test: Pulse-chase neddylation assay with DCN2; format: biochemical; conditions: 10 μM
# [10] = even at concentrations of 100 μM
# Chain of DCN1-dependent neddylation from AcUBE2M to CUL2CTD-RBX1 (Q96GG9 60-248 limits assumed): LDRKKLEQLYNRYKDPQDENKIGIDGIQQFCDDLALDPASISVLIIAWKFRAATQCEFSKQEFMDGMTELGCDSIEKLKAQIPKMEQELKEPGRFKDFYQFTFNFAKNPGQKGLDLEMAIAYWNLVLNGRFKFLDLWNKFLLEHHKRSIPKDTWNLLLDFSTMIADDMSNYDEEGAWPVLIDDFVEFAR
# Chain of DCN1 (PONY domain) binding to N-terminally acetylated UBE2M peptide (Q96GG9 60-248 limits assumed): as above
# Chain of DCN1 (Q96GG9 60-248 limits assumed): as above
# Chain of C115A DCN1, C115G DCN1 (Q96GG9 62-259 C115A): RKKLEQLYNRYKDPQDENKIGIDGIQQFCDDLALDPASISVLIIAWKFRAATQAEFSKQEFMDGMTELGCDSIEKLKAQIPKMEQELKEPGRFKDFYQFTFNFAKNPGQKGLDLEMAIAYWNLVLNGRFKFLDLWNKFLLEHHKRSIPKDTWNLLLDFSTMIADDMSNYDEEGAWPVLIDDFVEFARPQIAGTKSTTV
# Chain of DCN2 PONY domain (Q6PH85 60-248 limits assumed): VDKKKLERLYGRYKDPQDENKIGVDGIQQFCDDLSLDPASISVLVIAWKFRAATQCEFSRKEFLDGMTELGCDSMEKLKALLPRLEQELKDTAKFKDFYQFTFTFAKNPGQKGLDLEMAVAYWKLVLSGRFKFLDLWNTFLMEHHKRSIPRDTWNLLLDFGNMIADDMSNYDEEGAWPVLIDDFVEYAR
# Chain of DCN2 (Q6PH85 60-248 limits assumed): as above
# Chain of UBE2M-DCN1 interaction in 293T cells (Q96GG9 whole entry): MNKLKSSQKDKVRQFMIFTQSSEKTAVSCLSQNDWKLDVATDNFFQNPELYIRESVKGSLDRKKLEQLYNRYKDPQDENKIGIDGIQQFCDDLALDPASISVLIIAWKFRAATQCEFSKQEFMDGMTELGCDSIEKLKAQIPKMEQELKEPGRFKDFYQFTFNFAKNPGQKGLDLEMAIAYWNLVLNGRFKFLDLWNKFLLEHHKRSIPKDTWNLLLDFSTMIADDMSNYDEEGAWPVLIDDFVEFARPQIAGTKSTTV
compound,measurement,setting,value
NS(=O)(=O)OC[C@@H]1C[C@@H](n2ccc3c(N[C@H]4CCc5ccccc54)ncnc32)C[C@@H]1O [MLN4924],concentration at which cell based activity is penetrant,[1],0.3 to 1 µM
same,Reduction of total cellular ubiquitination,[1]; total blockade of neddylation,10–20%
same,IC50,NEDD8 E1 enzyme,5 nM
same,Levels of CRL substrates,"[2]; HCC95, MLN4924 1 μM",high-level accumulation
same,Effect on neddylation in cells,"[3]; single dose, 1 μM",eliminates all neddylation
"C=CC(=O)Nc1ccccc1CN(C(=O)Nc1cccc(C(F)(F)F)c1)C1CCN(C(C)CCC)CC1 (stereo not drawn) [NAcM-COV, N-(2-((1-(1-(pentan-2-yl)piperidin-4-yl)-3-(3-(trifluoromethyl)phenyl)ureido)methyl)phenyl)acrylamide]",Covalent adduct formation with DCN3,DCN3 PONY domain,corresponded to adducts
same,Inhibition of DCN5,DCN5,lack of inhibition
same,Covalent adduct formation with DCN1 Cys115 replaced by Ala or Gly,"C115A DCN1, C115G DCN1",prevented covalent adduct formation
same,Growth / colony formation of HCC95 cells in soft agar,[4],blocks growth
same,Covalent adduct formation with DCN4,DCN4 PONY domain,Both modified and unmodified forms
same,Covalent adduct formation with DCN5,DCN5 PONY domain,no evidence of covalent linkage
same,"Potency increase by electrophile, NAcM-COV versus NAcM-COVCTRL, TR-FRET",[5],> 30 fold
same,Covalent adduct formation with DCN1,DCN1,most effective; also recorded: corresponded to adducts
same,Activity towards DCN3,DCN3; 50 μM,Partial activity
same,Covalent adduct formation with DCN2,DCN2 PONY domain,corresponded to adducts
same,Effect on levels of neddylated cullins,[3],reduced levels of neddylated cullins; also recorded: most potent inhibition
same,Activity towards DCN4,DCN4; 50 μM,Partial activity
same,"Potency increase by electrophile, NAcM-COV versus NAcM-COVCTRL, neddylation",[6],2.5 fold
"CCCC(C)N1CCC(N(Cc2ccccc2NC(=O)CC)C(=O)Nc2cccc(C(F)(F)F)c2)CC1 (stereo not drawn) [NAcM-COVCTRL, N-(2-((1-(1-(pentan-2-yl)piperidin-4-yl)-3-(3-(trifluoromethyl)phenyl)ureido)methyl)phenyl)propionamide]",Effect on levels of neddylated cullins,[3],relatively reduced potency
"O=C(Nc1cccc(C(F)(F)F)c1)NC1CCN(Cc2ccccc2)CC1 [NAcM-HIT, 1-(1-benzylpiperidin-4-yl)-3-(3-(trifluoromethyl)phenyl)urea]",Inhibition of DCN1-independent NEDD8 ligation,[7],did not inhibit
"CCCCN1CCC(N(Cc2ccccc2)C(=O)Nc2cccnc2)CC1 [NAcM-NEG, 1-benzyl-1-(1-butylpiperidin-4-yl)-3-(pyridin-3-yl)urea]",Effect on DCN1-UBE2M interaction by TR-FRET,[5]; [10],no effect
same,Effect on levels of neddylated cullins,[3],no effect
same,Co-precipitation of DCN1 with UBE2M,[8],interaction was observed
same,Effect on neddylation by enzyme assays,[6]; [10],no effect
"CCCCN1CCC(N(Cc2ccccc2)C(=O)Nc2ccc(Cl)c(Cl)c2)CC1 [NAcM-OPT, 1-benzyl-1-(1-butylpiperidin-4-yl)-3-(3,4-dichlorophenyl)urea]",Activity toward DCN5,DCN5; 10 μM,no activity
same,Growth / colony formation of HCC95 cells in soft agar,[4],blocks growth
same,"Enhanced potency relative to NAcM-HIT, TR-FRET",[5],100 fold
same,Levels of CRL substrates,"[2]; HCC95, 10 μM",Neither NAcM-OPT treatment nor DCN1 shRNA stabilizes
same,Activity toward DCN3,DCN3; 10 μM,no activity
same,Effect on levels of neddylated cullins,[3],reduced levels of neddylated cullins
same,Fold decrease in UBE2M binding: CUL3,[9],1.9 fold
same,Fold decrease in UBE2M binding: CUL5,[9],3.2 fold
same,Fold decrease in UBE2M binding: DCN1,[9],≈ 8 fold
same,Activity toward DCN4,DCN4; 10 μM,no activity
same,Inhibition of DCN2-stimulated neddylation,DCN2,inhibited
same,Increased potency toward the neddylation reaction relative to NAcM-HIT,[6],25 fold
